Measurements taken from paper PMC12706802, “Ortho-Hydroxyanilides: Slow-Acting, Selective Histone Deacetylase 1/2 Inhibitors Suitable for Photocaging Applications” (ACS Pharmacology & Translational Science, 2025).

Tests used:
[1] = system: HDAC2; settings: literature value for Cpd-60; ref number not given; cited from earlier work
[2] = system: HDAC3; design: method as in earlier work; settings: Figure 1 and b11; ref 'Data taken from refs' (numbers not given); cited from earlier work
[3] = system: HDAC4–8; design: method as in number not given; settings: literature value for Cpd-60; ref number not given; cited from earlier work
[4] = system: HDAC6; design: method as in earlier work; settings: Figure 1; ref 'Data taken from refs' (numbers not given); cited from earlier work
[5] = target: T1, HDAC1 (Homo sapiens, UniProt Q13547); test: 100-fold jump-dilution experiments; settings: 1 h incubation at 5-fold IC50, then 1:100 dilution
[6] = target: T1, HDAC1; test: Fluorescence-based biochemical HDAC enzyme inhibition assay (ZMAL substrate); settings: HDAC1 IC50, preincubation of enzyme and inhibitor 1 h at RT; no irradiation
[7] = target: T2, human recombinant HDAC6 (Homo sapiens, UniProt Q9UBN7); test: as above
T2 sequence (Q9UBN7 1-1215): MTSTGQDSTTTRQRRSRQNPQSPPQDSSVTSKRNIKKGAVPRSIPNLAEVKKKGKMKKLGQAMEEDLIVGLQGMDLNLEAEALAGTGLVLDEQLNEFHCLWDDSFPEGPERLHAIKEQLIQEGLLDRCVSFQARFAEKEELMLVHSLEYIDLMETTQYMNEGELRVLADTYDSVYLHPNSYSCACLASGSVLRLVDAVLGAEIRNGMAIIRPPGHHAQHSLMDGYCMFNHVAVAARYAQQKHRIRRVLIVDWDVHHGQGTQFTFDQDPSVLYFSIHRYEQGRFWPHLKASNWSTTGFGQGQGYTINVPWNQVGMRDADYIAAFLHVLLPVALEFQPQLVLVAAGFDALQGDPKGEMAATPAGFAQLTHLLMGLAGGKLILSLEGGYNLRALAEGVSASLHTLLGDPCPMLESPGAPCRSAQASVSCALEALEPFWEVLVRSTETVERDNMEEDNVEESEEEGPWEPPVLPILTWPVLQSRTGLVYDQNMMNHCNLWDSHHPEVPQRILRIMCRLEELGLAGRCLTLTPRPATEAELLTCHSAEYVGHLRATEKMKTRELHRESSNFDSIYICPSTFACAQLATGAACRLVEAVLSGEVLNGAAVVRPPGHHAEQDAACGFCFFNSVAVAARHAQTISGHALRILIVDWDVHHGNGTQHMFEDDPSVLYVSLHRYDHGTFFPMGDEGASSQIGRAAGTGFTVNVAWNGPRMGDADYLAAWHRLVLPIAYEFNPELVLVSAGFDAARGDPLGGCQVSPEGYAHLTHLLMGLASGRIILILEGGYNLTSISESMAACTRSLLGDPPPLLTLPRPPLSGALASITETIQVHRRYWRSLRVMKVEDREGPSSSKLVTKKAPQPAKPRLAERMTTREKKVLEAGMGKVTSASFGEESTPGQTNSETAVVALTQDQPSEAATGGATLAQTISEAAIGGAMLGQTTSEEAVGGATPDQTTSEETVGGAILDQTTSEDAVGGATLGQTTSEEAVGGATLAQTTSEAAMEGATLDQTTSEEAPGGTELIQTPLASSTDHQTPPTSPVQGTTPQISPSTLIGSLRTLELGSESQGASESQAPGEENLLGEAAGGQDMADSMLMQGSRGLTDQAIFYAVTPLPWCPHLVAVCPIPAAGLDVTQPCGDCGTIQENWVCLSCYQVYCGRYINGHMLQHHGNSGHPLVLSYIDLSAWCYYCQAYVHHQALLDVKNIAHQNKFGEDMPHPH

[8] = target: T3, HDAC2 (Homo sapiens, UniProt Q92769); test: as above; settings: HDAC2 IC50, preincubation of enzyme and inhibitor 1 h at RT; no irradiation
[9] = target: T3, HDAC2; test: 100-fold jump-dilution experiments; settings: 1 h incubation at 10-fold IC50, then 1:100 dilution

T1 sequence (Q13547 whole entry): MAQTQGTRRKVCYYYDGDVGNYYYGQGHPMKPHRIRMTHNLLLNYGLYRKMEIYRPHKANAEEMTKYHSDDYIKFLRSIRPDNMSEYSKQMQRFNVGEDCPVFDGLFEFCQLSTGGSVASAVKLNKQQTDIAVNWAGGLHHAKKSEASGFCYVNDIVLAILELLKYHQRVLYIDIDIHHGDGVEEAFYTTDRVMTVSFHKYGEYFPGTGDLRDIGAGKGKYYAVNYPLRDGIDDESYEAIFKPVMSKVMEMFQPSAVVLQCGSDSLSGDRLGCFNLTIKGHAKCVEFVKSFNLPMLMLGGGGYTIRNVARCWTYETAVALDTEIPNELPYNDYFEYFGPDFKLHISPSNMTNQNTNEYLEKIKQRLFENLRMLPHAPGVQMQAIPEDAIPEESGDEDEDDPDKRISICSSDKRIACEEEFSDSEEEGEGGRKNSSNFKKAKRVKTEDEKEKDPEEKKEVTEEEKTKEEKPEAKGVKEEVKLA
T3 sequence (Q92769 whole entry): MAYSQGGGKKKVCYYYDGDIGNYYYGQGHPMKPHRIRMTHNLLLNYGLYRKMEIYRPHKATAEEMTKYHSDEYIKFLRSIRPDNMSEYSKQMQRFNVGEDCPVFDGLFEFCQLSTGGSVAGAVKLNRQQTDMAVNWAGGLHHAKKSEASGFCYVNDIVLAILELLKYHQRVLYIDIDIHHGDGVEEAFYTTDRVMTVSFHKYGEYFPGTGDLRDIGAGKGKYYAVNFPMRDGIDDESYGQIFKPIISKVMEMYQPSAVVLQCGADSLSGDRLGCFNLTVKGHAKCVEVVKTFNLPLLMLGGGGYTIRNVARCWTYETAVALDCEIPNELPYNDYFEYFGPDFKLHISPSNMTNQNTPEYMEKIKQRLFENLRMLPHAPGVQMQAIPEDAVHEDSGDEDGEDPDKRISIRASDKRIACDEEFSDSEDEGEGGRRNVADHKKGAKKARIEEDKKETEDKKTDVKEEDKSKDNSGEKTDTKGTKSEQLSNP

dissociation behavior from HDAC1 upon 100-fold dilution [5] | IC50 [6] [nM] | IC50 [7] [nM] | IC50 [8] [nM] | dissociation behavior from HDAC2 upon 100-fold dilution [9] | Structure (SMILES) | IC50 [1] [nM] | IC50 [2] [nM] | IC50 [3] [nM] | IC50 [4] [nM]
– | – | – | – | – | CC(=O)Nc1ccc(C(=O)Nc2cc(-c3cccs3)ccc2N)cc1 [Cpd-60, reference compound] | 49 | […] | […] | […]
tight-binding properties | 23 ± 4 | > 10000 | 49 ± 3 | tight-binding properties | CC(=O)Nc1ccc(C(=O)Nc2cc(-c3ccccc3)ccc2O)cc1 [ST13, 4-Acetamido-N-(4-hydroxy-[1,1′-biphenyl]-3-yl)-benzamide] | – | – | – | –
